Data set [1] can be described thus: Liver microsomal stability. The note with it: mouse liver microsomes, 0.5 mg protein/mL, 1 μM compound. It counts as in vitro ADME. As to the method:
An appropriate amount of the compound was precisely weighed and dissolved in DMSO to prepare a 5.0 mM stock solution. The 5.0 mM stock solution was diluted with DMSO to 1.0 mM, and finally diluted with water to a 10 μM working solution of the test sample for use (the DMSO content in the reaction system was 0.1%).
(1) The liver microsomes (20 mg protein/mL) were taken from a −80° C. refrigerator, pre-incubated on a 37° C. water bath thermostatic oscillator for 3 min, and thawed for use.
(2) An incubation system (without compound and β-NADPH) was prepared according to “composition of the incubation system” described above, and pre-incubated on a 37° C. water bath thermostatic oscillator for 2 min.
(3) Control group (without β-NADPH): 30 μL of water and 30 μL of compound working solution (10 μM) were added to 240 μL of the incubation system in step (2), and the reaction system was vortexed for 30 s and thoroughly mixed. The total volume of the reaction system was 300 μL. The sample was duplicated. The reaction solution was placed on a 37° C. water bath thermostatic oscillator for incubation, and timing was started. The sampling was conducted at 0 min and 60 min.
(4) Sample group: 70 μL of β-NADPH solution (10 mM) and 70 μL of compound working solution (10 μM) were added to 560 μL of the incubation system in step (2), and the total volume of the reaction system was 700 μL. The reaction solution was vortexed for 30 s and thoroughly mixed. The sample was duplicated. The reaction solution was placed on a 37° C. water bath thermostatic oscillator for incubation, and timing was started. The sampling was conducted at 0 min, 5 min, 10 min, 20 min, 30 min and 60 min.
(5) The reaction solution was vortexed for 3 min, and centrifuged at 12,000 rpm for 5 min.
(6) 50 μL of the supernatant was added to 150 μL of water, and the resulting solution was thoroughly vortexed and analyzed by LC/MS/MS.
On the technique in general: Liver microsomes are vesicles of endoplasmic reticulum, rich in cytochrome P450 enzymes.

Data set [2] concerns the target T1, H1299 cell pMer (Homo sapiens, UniProt Q12866).
T1 construct: endogenous in cells; host or cells: H1299
T1 sequence (Q12866 21-999): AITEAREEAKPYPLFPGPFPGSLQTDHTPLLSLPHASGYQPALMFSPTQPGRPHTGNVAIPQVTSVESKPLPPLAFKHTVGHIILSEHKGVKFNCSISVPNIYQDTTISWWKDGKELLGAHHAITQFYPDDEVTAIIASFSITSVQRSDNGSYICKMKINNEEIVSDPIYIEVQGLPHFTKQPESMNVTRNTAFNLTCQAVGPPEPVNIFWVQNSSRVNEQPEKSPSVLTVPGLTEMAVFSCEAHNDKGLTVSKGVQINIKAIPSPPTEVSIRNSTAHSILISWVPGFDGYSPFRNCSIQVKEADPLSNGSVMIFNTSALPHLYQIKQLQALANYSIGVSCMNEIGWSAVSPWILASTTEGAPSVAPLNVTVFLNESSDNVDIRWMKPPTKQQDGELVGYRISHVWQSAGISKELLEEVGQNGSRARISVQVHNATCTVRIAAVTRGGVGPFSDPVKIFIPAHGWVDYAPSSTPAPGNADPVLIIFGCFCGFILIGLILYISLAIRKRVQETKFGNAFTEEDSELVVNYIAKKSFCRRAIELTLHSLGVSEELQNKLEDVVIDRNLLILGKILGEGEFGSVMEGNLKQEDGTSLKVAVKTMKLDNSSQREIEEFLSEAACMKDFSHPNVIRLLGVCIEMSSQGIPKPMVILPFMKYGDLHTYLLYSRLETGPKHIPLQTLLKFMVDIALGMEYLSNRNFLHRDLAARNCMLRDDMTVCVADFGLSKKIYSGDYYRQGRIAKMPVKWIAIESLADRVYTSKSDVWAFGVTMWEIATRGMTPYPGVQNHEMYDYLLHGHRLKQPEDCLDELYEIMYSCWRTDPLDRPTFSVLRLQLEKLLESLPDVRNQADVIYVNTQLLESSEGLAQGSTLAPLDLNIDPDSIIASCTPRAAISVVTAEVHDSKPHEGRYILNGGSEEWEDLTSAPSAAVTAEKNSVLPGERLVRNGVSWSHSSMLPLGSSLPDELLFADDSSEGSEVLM
As to the kind of experiment: Inhibitory activity on cell pMer, H1299 cells, Human Mer Mab stimulation, Western Blot. The data set is classed as cell-based. The settings on record: Human Mer Mab 200 ng/mL. How it is done: H1299 is anon-small cell lung cancer cell.
H1299 cells were inoculated to a 6-well plate (containing 10% FBS 1640 medium, 5×10^5 cells per well) and adherently cultivated at 37° C., and 5% CO2 for 18 hrs. The cells were starved overnight, and then compound solutions with different concentrations were added. The compounds had final concentrations of 0.35, 1.1, 3.3 and 10 nM. […] There was a medium containing 1‰DMSO in the negative control well. The cells were incubated at 37° C., and 5% CO2 for 60 min, and then Human Mer Mab (R&D, final concentration: 200 ng/mL) was added to each well. The cells were further incubated for 60 min, and then the total protein of the cells was extracted for Western Blot experiment. Gray analysis was performed on the results with Image J software, and IC50 values were calculated with GraphPad 5.0 software. The inhibitory activities of the compounds on cell pMer were detected.
In general terms: A western blot detects proteins with antibodies after separation by electrophoresis.

Bounds are passed on as bounds.

A word on the half-life: it is how long it takes for the measured level to halve. Read a high half-life as slow decline. The microsomal CLint is a measure of how fast metabolising enzymes remove a compound, apart from limits set by blood flow. As usually defined, the IC50 is the concentration that gives 50% inhibition. High values mean weaker potency in that assay, low ones greater potency in that assay.

In data set [1], `COc1cc2nccc(Oc3cnc(NC(=O)c4nn(C5CCOCC5)cc(-c5ccc(C)cc5)c4=O)nc3)c2cc1OC` [Compound 18, N-(5-((6,7-dimethoxyquinolin-4-yl)oxy)pyrimidin-2-yl)-4-oxo-1-(tetrahydro-2H-pyran-4-yl)-5-(p-tolyl)-1,4-dihydropyridazin-3-carboxamide] came in with a half-life at 1 μM of 1.93 h and a microsomal CLint at 1 μM of 12 µL/min/mg. Also, the IC50 in data set [2] is < 1.1 nM.

In data set [1], `COc1cc2nccc(Oc3ccc(NC(=O)c4cn(C5CCOCC5)cc(-c5ccc(C)cc5)c4=O)nc3)c2cc1OC` [Compound 19, N-(5-((6,7-dimethoxyquinolin-4-yl)oxy)pyridin-2-yl)-4-oxo-1-(tetrahydro-2H-pyran-4-yl)-5-(p-tolyl)-1,4-dihydropyridin-3-carboxamide] returned a half-life at 1 μM of 2.27 h and an intrinsic metabolic clearance (microsomal CLint) at 1 μM of 10.2 µL/min/mg. In data set [2], the IC50 is < 0.35 nM.

In data set [1], `COc1cc2nccc(Oc3ccc(NC(=O)c4cc(CC5CCOCC5)cn(-c5ccc(F)cc5)c4=O)nc3)c2cc1OC` [Compound 32, N-(5-((6,7-dimethoxyquinolin-4-yl)oxy)pyridin-2-yl)-1-(4-fluorophenyl)-2-oxo-5-((tetrahydro-2H-pyran-4-yl)methy 1)-1,2-dihydropyridin-3-carboxamide] displayed a half-life at 1 μM of 1.39 h and a microsomal CLint at 1 μM of 16.6 µL/min/mg. In data set [2], this compound had an IC50 of 1.1 nM.

`COc1cc2nccc(Oc3cnc(NC(=O)c4nn(CC5CCOCC5)cc(-c5ccc(C)cc5)c4=O)nc3)c2cc1OC` [Compound 16, N-(5-((6,7-dimethoxyquinolin-4-yl)oxy)pyrimidin-2-yl)-4-oxo-1-((tetrahydro-2H-pyran-4-yl)methyl)-5-(p-tolyl)-1,4-dihydropyridazin-3-carboxamide]: in data set [1], the half-life at 1 μM was 3.5 h and the intrinsic metabolic clearance (microsomal CLint) at 1 μM was 6.6 µL/min/mg. The compound also returned an IC50 in data set [2] of 1.1 nM.

For the origin of these results see patent publication US20210177828A1, “TAM FAMILY KINASE /AND CSF1R KINASE INHIBITOR AND USE THEREOF” (Nanjing Transthera Biosciences Co., Ltd., priority 2018, published 2021).
